According to ChEMBL document CHEMBL1201862, “PubChem BioAssay data set” (2004):
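Five concentrations, 48 hours, 96-well plates. Here, GI50 denotes the concentration required for 50% inhibition of growth.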 Activity calls are given as the source filed them. No stated cut-off is given here; in the data, active = GI50 up to about 1.1 µM and inactive = higher.

Experiments:
Assay in all cases: inhibition of tumour cell growth, NCI panel, 48 h
[1] = system: A498
[2] = system: COLO 205
[3] = system: EKVX
[4] = system: HOP-62
[5] = system: HOP-92
[6] = system: HT-29
[7] = system: K562
[8] = system: LOX IMVI
[9] = system: M14
[10] = system: NCI-H460
[11] = system: OVCAR-4
[12] = system: OVCAR-8
[13] = system: RPMI-8226
[14] = system: SF-268
[15] = system: SK-MEL-28
[16] = system: SNB-75
[17] = system: SR
[18] = system: SW-620
[19] = system: U-251
[20] = system: Malme-3M

Measured: GI50

N=C(N)SCCc1ccncc1
inactive: [1] > 100 µM | [2] > 100 µM | [3] > 100 µM | [4] > 100 µM | [5] > 100 µM | [6] > 100 µM | [7] > 100 µM | [8] > 100 µM | [9] > 100 µM | [10] > 100 µM | [11] > 100 µM | [12] > 100 µM | [13] > 100 µM | [14] > 100 µM | [15] > 100 µM | [16] > 100 µM | [17] > 100 µM | [18] > 100 µM | [19] > 100 µM

CCN(CC(=O)O)C(=O)c1cccnc1
inactive: [1] > 100 µM | [3] > 100 µM | [4] > 100 µM | [5] > 100 µM | [6] > 100 µM | [7] > 100 µM | [8] > 100 µM | [9] > 100 µM | [20] > 100 µM | [10] > 100 µM | [11] > 100 µM | [12] > 100 µM | [14] > 100 µM | [15] > 100 µM | [16] > 100 µM | [17] > 100 µM | [18] > 100 µM | [19] > 100 µM

O=C1CCCSC(=O)N1Cc1ccccc1
active: [16] 0.0515 µM
inactive: [1] > 100 µM | [2] > 100 µM | [3] > 100 µM | [4] > 100 µM | [5] > 100 µM | [6] > 100 µM | [8] > 100 µM | [9] > 100 µM | [20] > 100 µM | [10] > 100 µM | [11] > 100 µM | [12] > 100 µM | [14] > 100 µM | [15] > 100 µM | [17] > 100 µM | [18] > 100 µM

O=C(C/C=C/c1ccccc1)c1ccccc1
inactive: [1] 15.7 µM | [2] 22.5 µM | [3] 35.5 µM | [4] 26.9 µM | [5] 29 µM | [6] 18.2 µM | [8] 12 µM | [9] 16.2 µM | [10] 19.9 µM | [12] 15.7 µM | [13] 28.2 µM | [14] 20.7 µM | [15] 27.2 µM | [16] 20.6 µM | [17] 12.4 µM | [18] 31.2 µM | [19] 14.6 µM

C=C(Br)C(C)(Cl)CCC(Br)C(C)(C)Cl (configuration not stated)
inactive: [1] > 100 µM | [2] 27 µM | [3] > 100 µM | [4] 41.2 µM | [5] 35.1 µM | [6] 34.6 µM | [7] 46.3 µM | [8] 17.6 µM | [9] 32.9 µM | [20] 23.4 µM | [10] > 100 µM | [11] 47.8 µM | [12] 64.1 µM | [14] 63.8 µM | [15] > 100 µM | [17] > 100 µM | [18] 36.1 µM | [19] > 100 µM

O=C(O)CSC(CC1(c2ccc(Cl)cc2)NC(=O)CS1)c1ccc(Cl)cc1 (configuration not stated)
inactive: [1] > 100 µM | [2] > 100 µM | [3] > 100 µM | [4] > 100 µM | [5] 22.8 µM | [6] > 100 µM | [7] > 100 µM | [8] > 100 µM | [9] > 100 µM | [10] 85.5 µM | [11] > 100 µM | [12] > 100 µM | [13] > 100 µM | [14] > 100 µM | [16] > 100 µM | [17] > 100 µM | [18] > 100 µM | [19] 89.7 µM
